The values that follow come from patent EP0490919B1, “CYTOPROTECTIVE COMPOUNDS BEARING UNSATURATED HYDROCARBON GROUPS HAVING 16 TO 20 CARBON ATOMS” (VIRGINIA COMMONWEALTH UNIVERSITY, priority 1989, dated 1991).

In one test the test system is PLA2. Description: Anti-PLA2 activity (Table 6). It counts as biochemical. Conditions: read-out: IC-50 Anti-PLA2 Activity.
The nature of test [1]: Anti-oxidant activity (Table 6). Conditions: read-out: IC-50 Anti-Oxidant Activity; nd = not detectable at ≤ 500 uM.

Structures are written as SMILES. Counter-ions that a name gives are not always drawn.

With `CCCCC/C=C\C/C=C\CCCCCCCC(=O)OC(C(=O)O)C(OC(=O)CCCCCCC/C=C\C/C=C\CCCCC)C(=O)O` (centres unmarked) [PX-9], the IC50 in the test on PLA2 was 7.5 µM; in test [1], 100 µM.
As to `CCCCCCCC/C=C\CCCCCCCC(=O)OC(C(=O)O)C(OC(=O)CCCCCCC/C=C\CCCCCCCC)C(=O)O` (centres unmarked) [PX-10], the figures for the IC50 (in the test with PLA2; in test [1]) were 7 µM and 60 µM, respectively.
For `CCCCCCCC/C=C\CCCCCCCC(=O)OCC1(COC(=O)CCCCCCC/C=C\CCCCCCCC)COC(=O)CN1C(=O)CCCCCCC/C=C\CCCCCCCC` [PX-11, Tricinyl Trioleate] the same measures were 2.6 µM and 145 µM.
On the same counts, the results for `CCCCCCCC/C=C\CCCCCCCC(=O)OCC(N)(COC(=O)CCCCCCC/C=C\CCCCCCCC)COC(=O)CCCCCCC/C=C\CCCCCCCC` [PX-12, P-Toluene Sulfonate Salt of Tris Trioleate] are 1.5 µM and 50 µM.
With `CCCCCCCC/C=C\CCCCCCCC(=O)OCC(COC(=O)CCCCCCC/C=C\CCCCCCCC)(COC(=O)CCCCCCC/C=C\CCCCCCCC)NCCS(=O)(=O)O` [PX-13, TES Trioleate], the IC50 in the test on PLA2 came to 2.2 µM; in test [1] it was 60 µM.
Turning to `CCCCC/C=C\C/C=C\CCCCCCCC(=O)OCC1(COC(=O)CCCCCCC/C=C\C/C=C\CCCCC)COC(=O)CN1C(=O)CCCCCCC/C=C\C/C=C\CCCCC` [PX-15], in the test on PLA2, the IC50 was 19.2 µM.
